Like-named read-outs stand apart in the source and are kept apart here.
Tests used:
[1] = mouse, in vivo, iv
Protocol: (§6) An acute toxicological study was performed for 320 prior to the xenograft study. Two groups (n=3) of female CD-1 mice were injected intraperitoneally (i.p.) with either 10 or 100 mg/Kg of 320 dissolved in 5% DMSO, 10% PEG400. […] A second MTD study was done by the intravascular (i.v.) route using 4 groups of CD-1 mice for the following: vehicle, 3, 10 and 30 mg/Kg injections which were to be given daily for days 1-5 and study duration of two weeks, at which point survivors would be euthanised.

MCF-7/ADR = experiment: Cell proliferation assay, MDR line MCF-7/ADR; type: cell-based, human; settings: 48 hrs exposure; less potent in MCF-7/ADR
Excerpt: (§1) The MCF-7 cell line, the MDR cell line, and the MCF-7/ADR cell line were used. Alamar Blue™ was used to quantitate cell viability.

human Topo IIα = target: T1, human Topo IIα (Homo sapiens, UniProt P11388); experiment: Topo IIα decatenation inhibition assay (kDNA, agarose gel); type: biochemical; settings: sample gel, FIG. 2; kDNA substrate
T1 construct: purchased Topogen Inc. Columbus, Ohio
T1 sequence (P11388 whole entry): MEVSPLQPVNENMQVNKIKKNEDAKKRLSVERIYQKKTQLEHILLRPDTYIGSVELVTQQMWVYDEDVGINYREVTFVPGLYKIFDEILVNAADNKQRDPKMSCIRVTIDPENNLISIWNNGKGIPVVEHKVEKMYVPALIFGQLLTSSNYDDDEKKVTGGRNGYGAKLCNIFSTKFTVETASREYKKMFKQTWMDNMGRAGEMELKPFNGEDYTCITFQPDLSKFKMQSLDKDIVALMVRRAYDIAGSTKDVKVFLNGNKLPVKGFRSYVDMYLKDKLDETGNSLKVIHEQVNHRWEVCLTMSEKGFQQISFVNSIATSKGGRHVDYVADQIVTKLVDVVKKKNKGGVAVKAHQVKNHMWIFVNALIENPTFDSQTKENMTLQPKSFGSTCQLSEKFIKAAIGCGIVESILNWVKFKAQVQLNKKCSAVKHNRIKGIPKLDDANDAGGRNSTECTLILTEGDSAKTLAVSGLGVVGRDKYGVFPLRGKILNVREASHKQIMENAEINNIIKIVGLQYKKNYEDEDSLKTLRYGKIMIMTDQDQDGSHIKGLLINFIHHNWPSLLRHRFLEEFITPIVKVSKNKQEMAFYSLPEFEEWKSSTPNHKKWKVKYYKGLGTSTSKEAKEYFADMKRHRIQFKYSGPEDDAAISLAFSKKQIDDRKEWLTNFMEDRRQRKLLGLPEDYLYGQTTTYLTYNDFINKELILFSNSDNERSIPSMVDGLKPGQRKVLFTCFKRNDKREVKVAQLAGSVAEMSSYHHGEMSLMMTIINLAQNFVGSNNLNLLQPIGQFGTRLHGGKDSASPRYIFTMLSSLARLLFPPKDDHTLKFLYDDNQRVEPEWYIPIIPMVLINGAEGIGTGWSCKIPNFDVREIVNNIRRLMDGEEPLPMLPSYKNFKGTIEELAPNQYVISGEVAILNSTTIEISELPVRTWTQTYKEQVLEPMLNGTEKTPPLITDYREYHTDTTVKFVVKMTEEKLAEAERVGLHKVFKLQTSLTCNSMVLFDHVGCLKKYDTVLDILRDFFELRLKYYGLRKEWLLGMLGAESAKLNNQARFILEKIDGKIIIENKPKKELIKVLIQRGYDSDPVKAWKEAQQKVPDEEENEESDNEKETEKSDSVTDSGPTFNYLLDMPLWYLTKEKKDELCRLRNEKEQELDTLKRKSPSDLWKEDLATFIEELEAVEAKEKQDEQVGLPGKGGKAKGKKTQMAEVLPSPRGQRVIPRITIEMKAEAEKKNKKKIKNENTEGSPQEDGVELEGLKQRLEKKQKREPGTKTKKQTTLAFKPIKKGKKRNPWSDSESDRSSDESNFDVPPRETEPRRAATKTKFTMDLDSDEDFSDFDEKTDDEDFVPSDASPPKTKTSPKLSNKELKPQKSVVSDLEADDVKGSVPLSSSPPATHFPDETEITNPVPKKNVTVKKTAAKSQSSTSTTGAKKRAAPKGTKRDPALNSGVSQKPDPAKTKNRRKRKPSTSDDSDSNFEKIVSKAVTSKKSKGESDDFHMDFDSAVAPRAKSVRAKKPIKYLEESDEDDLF
Excerpt: When present, high molecular weight kDNA has not migrated from the loading well.
The enzyme assays used for determining Topo IIα inhibition was either the ATP-dependent decatenation of high molecular weight kDNA (kinetoplast) as substrate or the relaxation of supercoiled pBR322 each incorporating human Topo IIα (Topogen Inc. Columbus, Ohio) and following literature protocols (Fortune, J. M. et al., J. Biol. Chem., 273(28), 17643-50 1998; Muller, M. T. et al., Biochemistry, 27(22), 8369-79, 1988). The 2.5 Kd mini-circle product derived from the catenated substrate is resolved on an agarose gel with ethidium bromide staining after electrophoresis. Likewise, the relaxed form of pBR322 is resolved from the faster moving supercoiled form during electrophoresis.

[2] = Acute toxicological study, i.p.; type: in vivo; settings: female CD-1 mice, n=3, seven days
Protocol: as §6

[3] = target: TopoIIα-DNA covalent complex (Homo sapiens, UniProt P11388); experiment: Topo IIα DNA covalent complex stabilization assay; type: biochemical; settings: SDS trapping, proteinase K, FIG. 5
Chain of TopoIIα-DNA covalent complex (P11388 whole entry, one chain of several): as the sequence (P11388 whole entry) above
Excerpt: (§2) To determine if the compound 320 stabilizes the TopoIIα-DNA covalent complex, cleavage intermediates are trapped by the addition of SDS to the reaction (Wilson Byl, J. A., et al., Biochemistry, 40, 712-718, 2001). After proteinase K digestion to digest any covalently bound Topo, the products are electrophoresed and stained with EtBr. The appearance of an additional band that is a linear form of the 2.5 Kb minicircle product is indicative of a compound's ability to stabilize the covalent complex.

MCF-7 [4] = experiment: Cell proliferation assay, MCF-7; type: cell-based; settings: Homo sapiens, MCF7; 48 hrs exposure, Alamar Blue, FIG. 6; no shift between MCF-7 and MCF-7/ADR; read-out: approximate IC50, cell proliferation
Protocol: as §1
The compounds listed in Table II were prepared using the procedures outlined in the above Examples.

Topo I = target: T2, Topo I (Homo sapiens, UniProt P11387); experiment: Topo I covalent complex stabilization test; type: biochemical; settings: similar tests as for Topo IIα
T2 sequence (P11387 1-765): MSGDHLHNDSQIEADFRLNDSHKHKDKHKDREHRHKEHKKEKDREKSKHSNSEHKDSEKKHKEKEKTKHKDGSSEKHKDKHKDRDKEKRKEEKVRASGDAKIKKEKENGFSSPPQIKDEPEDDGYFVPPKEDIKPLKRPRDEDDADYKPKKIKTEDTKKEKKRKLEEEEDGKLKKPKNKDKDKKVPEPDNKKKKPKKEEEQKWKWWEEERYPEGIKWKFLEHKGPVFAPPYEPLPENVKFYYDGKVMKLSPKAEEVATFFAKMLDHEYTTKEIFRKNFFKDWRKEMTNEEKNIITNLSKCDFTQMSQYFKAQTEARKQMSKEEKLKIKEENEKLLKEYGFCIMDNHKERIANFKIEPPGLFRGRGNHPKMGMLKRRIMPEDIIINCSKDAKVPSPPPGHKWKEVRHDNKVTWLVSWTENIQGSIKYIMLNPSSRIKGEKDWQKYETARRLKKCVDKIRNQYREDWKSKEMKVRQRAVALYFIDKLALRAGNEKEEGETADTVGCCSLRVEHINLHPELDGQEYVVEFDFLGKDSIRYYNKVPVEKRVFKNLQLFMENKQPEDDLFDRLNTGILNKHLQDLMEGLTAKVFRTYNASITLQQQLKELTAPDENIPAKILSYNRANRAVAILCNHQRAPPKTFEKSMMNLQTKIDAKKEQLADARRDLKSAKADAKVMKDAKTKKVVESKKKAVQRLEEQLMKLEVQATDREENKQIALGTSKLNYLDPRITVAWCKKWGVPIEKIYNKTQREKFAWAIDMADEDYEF
Excerpt: as §2

NCI-H460 [5] = experiment: NCI-H460 human xenograft study in nude mice; settings: i.v., 320 25 mg/Kg days 1-5, etoposide 35 mg/Kg days 7, 10, 14; for anti-tumor activity with respect to final tumor volume: doxorubicin 5 mg/Kg days 7 and 14, day 28
Protocol: as §6
All injections were by the i.v. route; groups were 5 NCR nu/nu mice. The cell line NCI-H460 was used to produce the tumors that appeared by day 7. […] All survivors to day 28 were euthanised at this time and tumor volumes measured.

UO-31 = experiment: Cell proliferation assay, Renal Cancer UO-31; type: cell-based; settings: Homo sapiens, read-out: GI50 or IC50, Renal Cancer UO-31
Protocol: (§3) The compounds listed in Table IV were prepared using the procedures outlined in the above Examples.

H69-AR (MDR) = experiment: Cell proliferation assay, SC Lung Cancer H69-AR (MDR); type: cell-based; settings: Homo sapiens, H69AR; read-out: GI50 or IC50, SC Lung Cancer H69-AR (MDR)
Protocol: (§4) The compounds listed in Table III were prepared using the procedures outlined in the above Examples.

OVCAR-3 = experiment: Cell proliferation assay, Ovarian Cancer OVCAR-3; type: cell-based; settings: Homo sapiens, read-out: GI50 or IC50, Ovarian Cancer OVCAR-3
Protocol: as §3

MCF-7 [6] = experiment: Cell proliferation assay (panel), Breast Cancer MCF-7; type: cell-based; settings: Homo sapiens, MCF7; read-out: GI50 or IC50, Breast Cancer MCF-7
Protocol: as §3

HL60-MX1 (MDR) = experiment: Cell proliferation assay, Leukemia HL60-MX1 (MDR); type: cell-based; settings: read-out: GI50 or IC50, Leukemia HL60-MX1 (MDR)
Protocol: as §4

MES-SA/Dx5 = experiment: Cell proliferation assay, Uterine MES-SA/Dx5; type: cell-based; settings: Homo sapiens, read-out: GI50 or IC50, Uterine MES-SA/Dx5
Protocol: as §3

HL-60 = experiment: Cell proliferation assay, Leukemia HL-60; type: cell-based; settings: Homo sapiens, read-out: GI50 or IC50, Leukemia HL-60
Protocol: as §4

SF-268 = experiment: Cell proliferation assay, CNS Cancer SF-268; type: cell-based; settings: Homo sapiens, read-out: GI50 or IC50, CNS Cancer SF-268
Protocol: as §4

PC-3 = experiment: Cell proliferation assay, Prostate Cancer PC-3; type: cell-based; settings: Homo sapiens, read-out: GI50 or IC50, Prostate Cancer PC-3
Protocol: as §3

NCI-H460 [7] = experiment: Cell proliferation assay, NSC Lung Cancer NCI-H460; type: cell-based; settings: Homo sapiens, read-out: GI50 or IC50, NSC Lung Cancer NCI-H460
Protocol: as §4

HCT-15 = experiment: Cell proliferation assay, Colon Cancer HCT-15; type: cell-based; settings: Homo sapiens, read-out: GI50 or IC50, Colon Cancer HCT-15
Protocol: as §4

SK-MEL-2 = experiment: Cell proliferation assay, Melanoma SK-MEL-2; type: cell-based; settings: Homo sapiens, read-out: GI50 or IC50, Melanoma SK-MEL-2
Protocol: as §3

NCI-ADR = experiment: Cell proliferation assay, Breast Cancer NCI-ADR; type: cell-based; settings: Homo sapiens, NCI/ADR-RES; read-out: GI50 or IC50, Breast Cancer NCI-ADR
Protocol: as §3

calf thymus DNA = experiment: DNA-intercalator displacement assay (EtBr displacement); type: binding; settings: FIG. 4
Excerpt: The curve labeled “Hoechst” corresponds to Hoechst 33258. Controls are: 1) no EtBr (min. fluorescence) and 2) no compound (max. fluorescence).
(§5) Gel retardation assays were done on 320 and other biaryl/terphenyl acid compounds, to test for electrophoretic mobility shifts due to the presence of a substance that directly binds DNA.

pBR322 plasmid = experiment: Gel retardation assay (electrophoretic mobility shift); type: binding
Excerpt: as §5

Structure (SMILES) | anti-tumor activity with respect to final tumor volume (NCI-H460 [5]) | IC50 (UO-31) [nM] | IC50 (H69-AR (MDR)) [nM] | IC50 (OVCAR-3) [nM] | IC50 (MCF-7 [6]) [nM] | IC50 (HL60-MX1 (MDR)) [nM] | IC50 (MES-SA/Dx5) [nM] | IC50 (HL-60) [nM] | IC50 (SF-268) [nM] | IC50 (PC-3) [nM] | IC50 (NCI-H460 [7]) [nM] | IC50 (HCT-15) [nM] | IC50 (SK-MEL-2) [nM] | IC50 (NCI-ADR) [nM] | further results
O=C(NC1(C(=O)O)Cc2ccccc2C1)c1ccc(Cl)c(-c2ccc(-c3ccccc3)cc2)c1 [Compound 320, 2-[(6″-Chloro-[1,1′;4′,1″]terphenyl-3″-carbonyl)-amino]-indan-2-carboxylic acid] | some final growth inhibition | – | – | – | – | – | – | – | – | – | – | – | – | – | survival, MTD study [1]: All other animals survived to the end of the study; survival, MTD study ([1]; 30 mg/kg): Two animals in the highest dose group survived with one animal dying after 3 injections; shift in potency, resistant line MCF-7/ADR versus parent line MCF-7 (MCF-7/ADR): no shift in potency; inhibition of Topo IIα decatenation (human Topo IIα): complete inhibition; survival and side effects, acute toxicity ([2]; 10 mg/Kg (low dose)): all the low dose mice survived with no visible side effects; survival, acute toxicity ([2]; 100 mg/Kg (high dose)): Two mice in the high dose group survived; stabilization of the TopoIIα-DNA covalent complex (linear form of minicircle) [3]: does not stabilize the covalent complex; IC50 (MCF-7 [4]): ~30000 nM; stabilization of the covalent complex in Topo I reactions (Topo I): no apparent stabilization of the covalent complex; initial tumor growth delay (NCI-H460 [5]): no initial growth delay
O=C(NC1CCNCC1)c1ccc(Cl)c(-c2ccc(-c3ccccc3)cc2)c1 [Compound 43, 6-Chloro-[1,1′;4′,1″]terphenyl-3-carboxylic acid piperidin-4-ylamide] | – | 1000 to 25000 | ≤ 1000 | 1000 to 25000 | 1000 to 25000 | ≤ 1000 | ≤ 1000 | 1000 to 25000 | 1000 to 25000 | 1000 to 25000 | 1000 to 25000 | 1000 to 25000 | 1000 to 25000 | ≤ 1000 | –
CN(C)CCN(C(=O)c1ccc(Cl)c(-c2ccc(-c3ccccc3)cc2)c1)c1cccnc1 [Compound 52, 6-Chloro-[1,1′;4′,1″]terphenyl-3-carboxylic acid (2-dimethylamino-ethyl)-pyridin-3-yl-amide] | – | 1000 to 25000 | 1000 to 25000 | 1000 to 25000 | 1000 to 25000 | 1000 to 25000 | ≤ 1000 | 1000 to 25000 | 1000 to 25000 | 1000 to 25000 | 1000 to 25000 | 1000 to 25000 | 1000 to 25000 | 1000 to 25000 | –
COc1ccc(NC(=O)c2ccc(Cl)c(-c3ccc(-c4ccccc4)cc3)c2)cn1 [Compound 8, 6-Chloro-[1,1′;4′,1″]terphenyl-3-carboxylic acid (6-methoxy-pyridin-3-yl)-amide] | – | 1000 to 25000 | ≤ 1000 | ≤ 1000 | > 25000 | 1000 to 25000 | ≤ 1000 | ≤ 1000 | ≤ 1000 | ≤ 1000 | ≤ 1000 | ≤ 1000 | 1000 to 25000 | ≤ 1000 | –
O=C(Nc1ccncn1)c1ccc(Cl)c(-c2ccc(-c3ccccc3)cc2)c1 [Compound 37, 6-Chloro-[1,1′;4′,1″]terphenyl-3-carboxylic acid pyrimidin-4-ylamide] | – | 1000 to 25000 | ≤ 1000 | > 25000 | 1000 to 25000 | ≤ 1000 | ≤ 1000 | 1000 to 25000 | 1000 to 25000 | 1000 to 25000 | 1000 to 25000 | 1000 to 25000 | > 25000 | ≤ 1000 | –
O=C(O)C1c2ccccc2CCN1C(=O)c1ccc(Cl)c(-c2ccc(-c3ccccc3)cc2)c1 (stereo not shown) [Compound 337, 2-(6″-Chloro-[1,1′;4′,1″]terphenyl-3″-carbonyl)-1,2,3,4-tetrahydro-isoquinoline-1-carboxylic acid] | – | – | – | – | – | – | – | – | – | – | – | – | – | – | displacement of EtBr (intercalator) from DNA (calf thymus DNA): lack of intercalator displacement
CN1CCN(c2ccc3[nH]c(-c4ccc5[nH]c(-c6ccc(O)cc6)nc5c4)nc3c2)CC1 [Hoechst 33258] | – | – | – | – | – | – | – | – | – | – | – | – | – | – | IC50 of EtBr displacement (calf thymus DNA): low μM; displacement of EtBr (intercalator) from DNA (calf thymus DNA): clearly demonstrates displacement of EtBr
COc1cccc2c1C(=O)c1c(O)c3c(c(O)c1C2=O)C[C@@](O)(C(=O)CO)C[C@@H]3O[C@H]1C[C@H](N)[C@H](O)[C@H](C)O1 [doxorubicin, reference compound] | least efficacy | – | – | – | – | – | – | – | – | – | – | – | – | – | shift in potency, resistant line MCF-7/ADR versus parent line MCF-7 (MCF-7/ADR): 100 fold; inhibition of Topo IIα decatenation (human Topo IIα): partial inhibition; mobility shift of pBR322 plasmid on gels (pBR322 plasmid): Mobility shifts were seen
COc1cc([C@@H]2c3cc4c(cc3[C@@H](O[C@@H]3O[C@@H]5CO[C@@H](C)O[C@H]5[C@H](O)[C@H]3O)[C@H]3COC(=O)[C@H]23)OCO4)cc(OC)c1O [etoposide] | greatest anti-tumor activity | – | – | – | – | – | – | – | – | – | – | – | – | – | stabilization of the TopoIIα-DNA covalent complex (linear form of minicircle) [3]: the linear form is present; initial tumor growth delay (NCI-H460 [5]): greatest initial growth delay

— patent US7683097B2, “Topoisomerase inhibitors” (Propharmacon Inc., priority 2004, dated 2010)
